Test results from patent publication US20180214400A1, “THE USE OF KAURANES COMPOUNDS IN THE MANUFACTURE OF MEDICAMENT FOR TREATMENT OF CADIAC HYPERTROPY AND PULMONARY HYPERTENSION” (KEY-PHARMA BIOMEDICAL INC., priority 2015, published 2018).

Assays:
TAC rats [1] = assay: Actin remodeling (FITC-phalloidin) and cardiac fibrosis (picrosirius red) in TAC rats; type: in vivo, Wistar rats; conditions: for reduction in interstitial fibrosis: 8 mg/kg/d; for level of myocardia F-actin (FITC-phalloidin staining): 9 weeks TAC, compound A 8 mg/kg/d, sildenafil 70 mg/kg/d
Procedure: TAC between the innominate artery and the left carotid artery was conducted to induce pressure overload for 3 weeks (3-week TAC) or 9 weeks (9-week TAC). Sham control animals underwent the same operation, but without aortic constriction. All surgical procedures were performed with animals anesthetized with 3% pentobarbital sodium injected intraperitoneally (i.p. 40 mg/kg). During the surgery period, rats were intubated and ventilated with a rodent ventilator (Harvard Apparatus, Holliston, Mass., USA). Both 3-week and 9-week TAC-exposed rats were randomly divided into five groups (n=8-10 rats) including a TAC vehicle control, COMPOUND A, low (TAC+COMPOUND A (L), 1 mg/kg/d), middle (TAC+COMPOUND A (M), 2 mg/kg/d), high (TAC+COMPOUND A (H), 8 mg/kg/d) dose group respectively, and sildenafil (TAC+Sil, 70 mg/kg/d) as a positive control group. Sham controls were all treated with vehicle. Acute and chronic mortality from the TAC procedure was <5%. The treat group was intra-gastric administrated with sodium salt of compound A which was solved in a mixture of saline and organic solvent of the same volume (1:1, 0.5 ml) and sildenafil which was solved in distilled water. All drugs and vehicle treatment were given twice a day after surgery for three days as designed. The animals were examined at 3 weeks and 9 weeks after surgery accordingly. At the end of the observation periods and after hemodynamic measurement in vivo, all animals were sacrificed and hearts were explanted for further Analyses. Tissue sections of rat hearts were fixed in 10% neutral-buffered formalin, embedded in paraffin, cut into […] serial sections, and then stained with haematoxylin and eosin (H&E), picrosirius red or phalloidin. Nikon system and Zeiss confocal microscope were used to capture digital images. Stained with H&E was to evaluate cell size, stained with picrosirius red (sigma CA) was to test fibrosis using standard procedure and the amount of F-actin was stained with phalloidin. We determined cross sectional cell area and interstitial collagen fraction using computer-assisted image analysis (Image-Pro Plus software), with the observer blinded as to tissue source. At least four or five different hearts were quantified for analysis. Some transcription factors important for hypertrophy influence actin dynamics, which is regulated by free G-actin and polymeric F-actin. A higher F-to-G actin content is an important result of the activation of hypertrophy pathways. The level of myocardia F-actin was measured by FITC-phalloidin staining. […] TAC increased the level of F actin, thus lead to actin dynamics. Both compound A and sildenafil can reduced the expression of F actin and maintain F/G actin balance. To determine whether compound A attenuates TAC-induced cardiac fibrosis, heart tissues were stained with picrosirius red to detect interstitial collagen distribution in left ventricular. In both 3-week and 9-week TAC groups, TAC induced significant interstitial fibrosis (P<0.05). The collagen content increased 5.7 fold and 7.5 fold in 3-week and 9-week TAC control groups, respectively, compared to sham control group.

TAC rats [2] = assay: Heart rate variability spectral analysis in TAC rats; type: in vivo; conditions: TAC for 9 weeks
Procedure: Three or nine weeks after TAC operation, rats were anesthetized with pentobarbital sodium (i.p. 40 mg/kg). The electrocardiogram (ECG) was measured using the II Einthoven lead. Three stainless steel 22G needle electrodes were localized in the insertion of the right (G1) and left (GND) front legs, and in the left (G2) rear leg. Accordingly, 10 min of ECG recordings were digitally acquired at 2 kHz prior to any maneuver. Heart rate variability-Spectral Analysis was performed using fast Fourier transformation. Oscillatory components were separated into very low frequency (VLF; <0.04 Hz), low frequency (LF; 0.04-0.6 Hz), or high frequency (HF; 0.6-2.5 Hz) bands. HRV components were expressed in normalized units (n.u.) as a percentage of total power minus the VLF component. Efferent vagal parasympathetic activity is a major contributor to the HF component and both sympathetic and vagal influences contribute to the LF component; thus the ratio of LF to HF is commonly utilized as a measure of sympathovagal balance. Parameters of the heart rate variability (HRV) are indicators for cardiac autonomic balance. […] This invention disclosed a novel used of compound A for restore cardiac autonomic balance by suppress elevated sympathetic activity, which sildenafil had no such effect.

TAC-exposed rats = assay: ECG alterations induced by TAC; type: in vivo; conditions: for QT dispersion and QTc dispersion increase induced by TAC: TAC after 9 weeks; for QRS duration and R amplitude: TAC at 9 weeks
[3] = tested on: pulmonary hypertension rats; assay: Pressure overload (TAC)-induced pulmonary hypertension, lung histology; type: in vivo, wistar rats; parameters: Mean vascular wall thickness: unit not given here; conditions: for Mean vascular wall thickness: 9 weeks TAC
Procedure: Pressure overloaded-induced pulmonary hypertension was induced by transverse aortic constriction in male wistar rats (200±20 g body weight). Sham operated rats served as controls. […] After 9 weeks, animals were sacrificed and lungs were fixed, paraffin-embedded, sectioned, and stained with hematoxylin and eosin. Blinded stereological Analysis of mean wall thickness and vascular muscularization of lung arterial vessels was performed. Collagen I was verified by immune-fluorescent staining and visualized in confocal.

C[C@@]12CC[C@@H]3[C@@](CC[C@H]4[C@@]3(C)CCC[C@@]4(C)C(=O)O)(CC1=O)C2 [Compound A, (4α,8β,13β)-13-methyl-16-oxo-17-norkauran-18-oic acid]
reduction in interstitial fibrosis (TAC rats [1]; 3-week TAC): 58.2% | reduction in interstitial fibrosis (TAC rats [1]; 9-week TAC): 80.8% | level of myocardia F-actin (FITC-phalloidin staining) (TAC rats [1]): returned to control conditions | LF/HF ratio (TAC rats [2]): reversed to normal | QT dispersion and QTc dispersion increase induced by TAC (TAC-exposed rats): reversed such effects | QRS duration and R amplitude (TAC-exposed rats): trended normal | Fully muscularization ([3]; 1 mg/kg + TAC): 10.20 ± 9.787 % | Non-muscularization ([3]; 1 mg/kg + TAC): 66.78 ± 5.876 % | Partially muscularization ([3]; 1 mg/kg + TAC): 23.00 ± 3.938% | Fully muscularization ([3]; 4 mg/kg + TAC): 1.851 ± 3.207^#& % | Non-muscularization ([3]; 4 mg/kg + TAC): 81.10 ± 16.60 % | Partially muscularization ([3]; 4 mg/kg + TAC): 17.04 ± 18.98% | number of non-muscularization vessels ([3]; lung, TAC rats): increased | production of collagen I ([3]; lung, TAC rats): reduced | vascular remodeling in small and medium arteries ([3]; lung, TAC rats): prevented | fluorescent intensity of collagen I ([3]; lung, 1 mg/kg + TAC): 10.75 | Mean vascular wall thickness ([3]; pulmonary arterioles inner diameter <100 um, 1 mg/kg): 22.96 ± 7.83 | Mean vascular wall thickness ([3]; pulmonary arterioles inner diameter <100 um, 4 mg/kg): 17.60 ± 6.28^##&& | Mean vascular wall thickness ([3]; pulmonary arterioles inner diameter >100 um, 1 mg/kg): 16.60 ± 6.00 | Mean vascular wall thickness ([3]; pulmonary arterioles inner diameter >100 um, 4 mg/kg): 10.67 ± 5.01

CCCc1nn(C)c2c(=O)[nH]c(-c3cc(S(=O)(=O)N4CCN(C)CC4)ccc3OCC)nc12 [sildenafil, reference compound]
level of myocardia F-actin (FITC-phalloidin staining) (TAC rats [1]): returned to control conditions | inhibition effect on cardiac fibrosis compared to compound A (TAC rats [1]; TAC rats): less inhibition effect | LF/HF ratio (TAC rats [2]): did not reduce | QT dispersion and QTc dispersion increase induced by TAC (TAC-exposed rats): did not show similar protective effect | QRS duration and R amplitude (TAC-exposed rats): trended normal | Fully muscularization ([3]; 70 mg/kg + TAC): 23.80 ± 8.247 % | Non-muscularization ([3]; 70 mg/kg + TAC): 57.57 ± 7.182 % | Partially muscularization ([3]; 70 mg/kg + TAC): 18.61 ± 15.09% | fluorescent intensity of collagen I ([3]; lung, 70 mg/kg + TAC): 7.591 | Mean vascular wall thickness ([3]; pulmonary arterioles inner diameter <100 um, sildenafil): 24.10 ± 7.48 | Mean vascular wall thickness ([3]; pulmonary arterioles inner diameter >100 um, sildenafil): 14.88 ± 6.83
